One compound from article PMC8692498, “Synthesis and multifaceted pharmacological activity of novel quinazoline NHE-1 inhibitors” (Scientific Reports, 2021) can be followed below.

The inhibition is the drop in the measured response relative to a control, in per cent.

The target of assay [1] is T1, NHE-1 (Oryctolagus cuniculus, UniProt P23791).
T1 construct: endogenous in cells; host or cells: rabbit platelets in platelet-rich plasma (male rabbits)
Put plainly: NHE-1 inhibition assay on rabbit platelets (platelet shape change after acidification with sodium propionate, laser aggregometer). It is filed as cell-based. The procedure: Evaluation of NHE-1 inhibition was carried out on rabbit platelets by the known method[39],[40]. The experiments were carried out on 15 male rabbits weighing 3.0-4.0 kg. Platelet-rich plasma (PRP) was obtained by centrifuging blood with 3.8% sodium citrate (1:10) at 1000 rpm for 12 min (Multi centrifuge CM 6M, Latvia). Platelet shapeshifting due to acidification was followed with a laser aggregometer BIOLA-220 LA (Russia). Test compounds (10 μl, 10 nM final concentration) were added to 200 μl of PRP 5 min in a cuvette before the addition of sodium propionate solution, incubated with constant stirring using a magnetic stirrer (800 rpm, 37 °C). To control samples for NHE-1 activation, a buffer solution containing sodium propionate was added to 200 μL of PRP (600 μL, 135 mM sodium propionate, 20 mM HEPES, 1 mM CaCI2, 1 mM MgCI2, 10 mM glucose; pH 6.7). The change in light transmission at pH 7.4, 37 °C was monitored in a Krebs solution (600 μL, 120 mM NaCl, 4.8 mM KCl, 1.2 mM KH2PO4, 2.5 mM MgSO4, 25 mM NaHCO3, 2.6 mM CaCl2, 5.4 mM glucose; pH 7.4). Test compounds were added to a final concentration of 10 nM to the cuvette into 200 μl of PRP 5 min before adding the sodium propionate solution, incubated with constant stirring using a magnetic stirrer (800 rpm, 37 °C). NHE-1 inhibitors zoniporide, rimeporide, amiloride were used as reference drugs. Assays were run in 6 independent series.

In assay [2] the test system is intraocular pressure. Kind of assay: Intraocular pressure studies in outbred rats (TonoVet). It is filed as in vivo. The procedure:
The experiments were carried out on 75 adult outbred rats of both sexes, which were kept in standard cages at a temperature of 25 °C and a standard light regime. Animals were randomly assigned to the control and experimental groups (n = 5). Before the start of the experiment, the rats had free access to food and water. Intraocular pressure (IOP) was measured with a TonoVet device (Finland)[44] which measures IOP with a short touch of a small disposable tip in the center of the cornea, no corneal anesthesia is required. The study was carried out according to the published method. One drop (50 μl) of a test 0.4% solution of the compound was instilled into the right eye, and deionized water was added to the left eye. IOP was measured in both eyes. The left eye, in turn, serves to assess the possible systemic exposure of the test compounds. […] IOP-lowering activity was assessed as the maximum decrease in IOP from the initial values. At 9:00 AM, baseline IOP was measured in animals of all groups. Experiments were run in 5 independent replicates.

T1 sequence (P23791 whole entry): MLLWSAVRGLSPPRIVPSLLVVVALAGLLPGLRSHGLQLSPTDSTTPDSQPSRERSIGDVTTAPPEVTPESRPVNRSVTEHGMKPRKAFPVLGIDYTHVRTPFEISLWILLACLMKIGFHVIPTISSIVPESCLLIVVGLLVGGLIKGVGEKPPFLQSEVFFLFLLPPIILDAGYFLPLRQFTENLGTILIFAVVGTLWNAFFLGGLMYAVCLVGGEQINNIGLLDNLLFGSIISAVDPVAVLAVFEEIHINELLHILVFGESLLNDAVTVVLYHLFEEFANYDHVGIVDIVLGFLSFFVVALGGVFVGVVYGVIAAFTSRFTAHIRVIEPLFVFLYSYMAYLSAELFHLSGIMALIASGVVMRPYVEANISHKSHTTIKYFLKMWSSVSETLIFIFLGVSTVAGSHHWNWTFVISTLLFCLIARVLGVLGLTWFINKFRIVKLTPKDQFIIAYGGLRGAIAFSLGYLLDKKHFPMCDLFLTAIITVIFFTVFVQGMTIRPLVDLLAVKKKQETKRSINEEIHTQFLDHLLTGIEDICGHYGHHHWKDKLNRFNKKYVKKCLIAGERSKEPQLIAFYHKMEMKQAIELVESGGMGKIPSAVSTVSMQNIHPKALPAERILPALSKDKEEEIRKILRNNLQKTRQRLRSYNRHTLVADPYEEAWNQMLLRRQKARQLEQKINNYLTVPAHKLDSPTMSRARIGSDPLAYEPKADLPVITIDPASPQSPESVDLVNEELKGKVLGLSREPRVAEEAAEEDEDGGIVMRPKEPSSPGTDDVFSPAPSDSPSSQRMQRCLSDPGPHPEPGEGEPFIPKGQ

For `Cn1c(=O)n(Cc2nnc(N)[nH]2)c(=O)c2ccccc21` [Compound 3e, 3-[(5-Amino-4H-1,2,4-triazol-3-yl)methyl]-1-methylquinazoline-2,4(1H,3H)-dione], the inhibition at 0.01 µM in assay [1] (10 nM, rabbit platelet-rich plasma, decimal commas, read-out: NHE-1 inhibition at 10 nM, m ± SD, n = 6 (%)) is 57.8%. The “NHE-1 inhibitory activity (in words)” value in assay [1] (compared with reference drugs) was “more potent and comparable to zoniporide”. Further, in assay [2] (compared with zoniporide and timolol), the IOP-lowering effect size result is on record as “negligible”. In addition, in assay [2] (one drop (50 μl) of 0.4% solution instilled), the IOP-lowering activity result is recorded as “statistically significant activity”.
